Measurements reported in patent publication US20250263774A1, “DISCOVERING NEW XENOBIOTIC SUBSTRATES OF AN UDP-GLYCOSYLTRANSFERASE WITH A HIGH-THROUGHPUT METHOD” (priority 2024, published 2025).

Experiments:
[1] = patients that administer irinotecan; SN-38 excreted into the intestines via bile; cited from earlier work
[2] = system: UGT71G1; conditions: previous studies; cited from earlier work
[3] = system: UGT71G1; assay: LC-MS/MS analysis of substrates and glycosylated products of the UGT71G1 reaction; format: biochemical, Medicago truncatula; conditions: for validation as UGT71G1 substrate (glycosylated product detected): substrate 10 μM, UDP-glucose 50 μM, pH 7.4, 37° C., 2 hours 3HF, 4 hours SN-38, 24 hours BPA
Description: Liquid chromatography-coupled mass spectrometric analysis of substrates and products. The glycosylation reaction for plant UGT71G1 enzyme extracted from E. coli BL21(DE3) cells containing UGT71G1-pET28a was performed similar to the glucuronidation reaction as those published previously 17 with minor modification. Briefly, the enzyme UGT71G1 (final concentration 0.05-0.5 μg/ml) was mixed with UDP-glucose (50 μM) and substrate (final concentration 10 μM) in 50 mM potassium phosphate buffer (pH 7.4) to reach a final volume of 200 μL. This reaction mixture was incubated at 37° C. and at various time points for each substrate to obtain the highest product-to-substrate ratio: 2 hours for 3HF, 4 hours for SN-38, and 24 hours for BPA; reactions were ended with the addition of 200 μL methanol. The samples were centrifuged at 14000 rpm for 15 mins and supernatant was subjected to UPLC-MS/MS system for analysis after appropriate dilution with 50% MeOH solution.
LC-MS/MS analysis was performed with an EXIONLC™ UHPLC system coupled with API 5500 Q-Trap triple quadrupole mass spectrometer. A BEH C18 column (50×2.1 mm I.D., 1.7 μm, Waters, Milford, MA, USA) was used for liquid chromatography. For mobile phase, mobile phase A (MPA) was 0.1% formic acid in water and mobile phase B (MPB) was 100% acetonitrile; flow rate was 0.45 mL/min with a column temperature of 45° C. An amount of 10 μL sample was injected for each analysis and it was eluted with the following mobile phase profile: 0-0.5 min, 5-10% MPB, 0.5-1.5 min, 10-40% MPB, 1.5-4.0 min, 40-90% MPB, 4.0-4.4 min, 90% MPB, 4.4-4.6 min, 90-5% MPB, 4.6-5.0 min, 5% MPB. Gradient mobile phase for mycophenolic acid and metabolites: 0-1.0 min, 5-20% MPB, 1.0-1.5 min, 20% MPB, 1.5-4.0 min, 20-40% MPB, 4.0-5.0 min, 40-90% MPB, 5.0-5.5 min, 90-5% MPB, 5.5-6.0 min, 5% MPB.
To validate our results from the high-throughput fluorescent assay, a liquid chromatography-coupled tandem mass spectrometric (LC-MS/MS) method was used to monitor the reaction of UGT71G1 with 3-hydroxyflavone, bisphenol A, and SN-38.

[4] = system: UGT71G1; assay: High-throughput fluorescent assay for screening candidates of UGT glycosylation (UDP release, MicroMolar UDP assay kit); format: biochemical, Medicago truncatula; conditions: 6 μg UGT71G1, UDP-glucose 50 μM, substrate candidate 0.8 to 160 μM, 37° C. 45 minutes, ex 485 nm / em 535 nm
Description: High-throughput fluorescent assay for screening candidates of UGT glycosylation. Characterization of UDP formation involved the MicroMolar UDP assay kit (ProFoldin). For each reaction, reagents used from this kit include 3 μL of 10× buffer, 0.3 μL of 100×MUD reagent 1, and 0.3 μL of 100×MUD reagent 2. […] Each sample was then mixed with 30 μL of 1× fluorescence dye from the MICROMOLAR UDP assay kit and fluorescence was measured immediately with a BIOTEK SYNERGY H1 M florescence microplate reader at excitation 485 nm and emission 535 nm.
For a high-through method to robustly detect UGT activities with different glycosyl acceptor, it is necessary to target a change that is independent from the acceptor molecule. UDP-glycosyltransferases take UDP-glucose as a co-substrate; while the glucosyl moiety is transferred to the acceptor molecule, UDP is released as a by-product (FIG. 1A). Thus, UGT activities can be detected by the rise in UDP level in the reaction mixture. In our method to monitor an increase in UDP concentration, the UGT71G1 enzymatic reaction was coupled to the UDP assay kit, in which the release of UDP leads to an increase in fluorescence intensity.

SMILES | glycosylation of hydroxyl groups by UGT71G1 [2] | validation as UGT71G1 substrate (glycosylated product detected) [3] | other results
CCc1c2c(nc3ccc(OC(=O)N4CCC(N5CCCCC5)CC4)cc13)-c1cc3c(c(=O)n1C2)COC(=O)[C@]3(O)CC [irinotecan] | – | – | patients experiencing diarrhea [1]: 25%
COc1ccc(-c2coc3cc(O)cc(O)c3c2=O)cc1 [Sample 130, Biochanin A] | glycosylates multiple hydroxyl groups | – | –
CC(C)(c1ccc(O)cc1)c1ccc(O)cc1 [Sample 135, Bisphenol A] | – | validated | products formed in the reaction catalyzed by UGT71G1 ([3]; BPA 10 μM, 24 hours, major monoglycosylated, minor diglycosylated): two products
O=c1c(O)c(-c2ccccc2)oc2ccccc12 [Sample 26, 3-Hydroxyflavone] | – | validated | fold increase in fluorescent signal / fluorescence intensity with UGT71G1, comparing to the condition without UGT71G1 [4]: 30 fold
O=c1c(-c2ccc(O)cc2)coc2cc(O)cc(O)c12 [Sample 88, Genistein] | glycosylates multiple hydroxyl groups | – | –
CCc1c2c(nc3ccc(O)cc13)-c1cc3c(c(=O)n1C2)COC(=O)[C@]3(O)CC [Sample 58, 7-Ethyl-10-hydroxycamptothecin] | – | validated | –
